These are literature values, as cited in US8008021B2, “N-terminal truncation of cardiac troponin subunits and their roles in cardiovascular disease” (Evanston Northwestern Healthcare, priority 2006, dated 2011).

In one data set the target is T1, m-calpain (Homo sapiens, UniProt P17655).
T1 sequence (P17655 1-700): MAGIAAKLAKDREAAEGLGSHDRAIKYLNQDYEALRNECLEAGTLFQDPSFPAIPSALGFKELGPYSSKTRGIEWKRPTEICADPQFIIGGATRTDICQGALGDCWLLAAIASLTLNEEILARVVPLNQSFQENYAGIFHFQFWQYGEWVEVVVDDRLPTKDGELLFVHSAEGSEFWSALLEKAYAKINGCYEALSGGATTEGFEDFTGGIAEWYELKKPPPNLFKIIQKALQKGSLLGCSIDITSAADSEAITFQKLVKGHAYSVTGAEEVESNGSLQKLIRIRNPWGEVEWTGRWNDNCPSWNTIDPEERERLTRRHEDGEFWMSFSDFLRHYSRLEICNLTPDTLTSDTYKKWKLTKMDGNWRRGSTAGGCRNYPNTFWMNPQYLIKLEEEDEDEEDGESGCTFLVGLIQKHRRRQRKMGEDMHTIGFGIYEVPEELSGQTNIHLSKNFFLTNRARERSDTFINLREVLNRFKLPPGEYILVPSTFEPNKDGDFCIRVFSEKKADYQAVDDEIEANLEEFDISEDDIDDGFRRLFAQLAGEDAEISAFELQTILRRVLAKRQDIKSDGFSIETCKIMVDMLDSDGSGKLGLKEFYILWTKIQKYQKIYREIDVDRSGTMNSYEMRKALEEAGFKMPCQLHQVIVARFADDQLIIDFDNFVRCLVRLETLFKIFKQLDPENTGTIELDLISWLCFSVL
T1 sequence (P04632 1-268 partner): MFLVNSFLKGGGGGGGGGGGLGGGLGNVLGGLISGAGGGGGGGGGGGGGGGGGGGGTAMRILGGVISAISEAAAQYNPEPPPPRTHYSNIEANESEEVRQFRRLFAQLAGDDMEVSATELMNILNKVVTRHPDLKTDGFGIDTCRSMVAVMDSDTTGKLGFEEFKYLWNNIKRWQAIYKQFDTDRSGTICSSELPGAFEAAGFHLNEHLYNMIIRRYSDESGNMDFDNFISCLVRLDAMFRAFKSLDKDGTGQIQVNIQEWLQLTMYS
The conditions noted are these: reference 43; read-out: apparent inhibition constant Ki against m-calpain; cited from earlier work.

The target in another data set is T2, μ-calpain (Homo sapiens, UniProt P07384).
T2 sequence (P07384 1-714): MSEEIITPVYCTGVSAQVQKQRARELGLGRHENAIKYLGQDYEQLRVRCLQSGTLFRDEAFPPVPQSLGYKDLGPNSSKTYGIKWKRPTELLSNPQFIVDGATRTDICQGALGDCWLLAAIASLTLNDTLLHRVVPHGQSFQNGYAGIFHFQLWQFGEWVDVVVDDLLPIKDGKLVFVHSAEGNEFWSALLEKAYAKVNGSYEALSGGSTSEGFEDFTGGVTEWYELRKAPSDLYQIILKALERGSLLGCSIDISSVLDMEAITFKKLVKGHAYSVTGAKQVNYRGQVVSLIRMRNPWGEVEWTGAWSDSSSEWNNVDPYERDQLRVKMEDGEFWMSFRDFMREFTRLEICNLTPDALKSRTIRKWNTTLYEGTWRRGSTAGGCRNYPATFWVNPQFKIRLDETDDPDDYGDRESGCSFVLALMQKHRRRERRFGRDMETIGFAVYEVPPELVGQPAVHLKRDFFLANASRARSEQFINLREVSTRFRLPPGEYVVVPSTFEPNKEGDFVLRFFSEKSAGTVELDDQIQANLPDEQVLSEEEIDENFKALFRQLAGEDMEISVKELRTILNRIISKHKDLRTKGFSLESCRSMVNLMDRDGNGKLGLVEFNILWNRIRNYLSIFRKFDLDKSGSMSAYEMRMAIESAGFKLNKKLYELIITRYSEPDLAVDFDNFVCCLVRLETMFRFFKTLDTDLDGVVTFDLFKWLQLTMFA
T2 sequence (P04632 1-268 partner): T1 sequence (P04632 1-268 partner)
To be noted: reference 43, cited from earlier work; for Ki: read-out: apparent inhibition constant Ki against μ-calpain.

For the molecule `O=C(O)/C(S)=C/c1ccc(I)cc1` [PD150606], the Ki on m-calpain was 370 ± 30 nM; on μ-calpain, 210 ± 10 nM.
Regarding `O=C(O)/C(S)=C/c1c[nH]c2ccc(F)cc12` [PD151746], the Ki at m-calpain was 5330 ± 770 nM; on μ-calpain, 260 ± 30 nM. The “selectivity for μ-calpain over m-calpain” value on μ-calpain is reported as 20 fold.
